The target of test [1] is T1, TRPV1 (VR1) (Rattus norvegicus, UniProt O35433).
T1 construct: expressed in transfected cells; host or cells: HEK293-TetOFF, expression induced by withdrawing doxycycline
The test is described as follows: TRPV1 screening assay (FLIPR, Fluo-4 calcium), capsaicin stimulation. The note with it: FLIPR, HEK293-TetOFF-TRPV1, capsaicin 50 nM final; read-out: VR1 flipr CAPSAICIN IC50. It is filed as cell-based. The source says: (§1) • 1) Cell line: HEK293-Tet^OFF-TRPV1 • 2) Media: MEM (Invitrogen) • 3) 10% Tet-FBS (Clontech #8630-1) • 4) Fungizone (Gibe #15290-018 (100X)) • 5) Penn/Strep (Gibco #15140-122 (100X)) • 6) Geneticin (Gibco #10131-027 (100X)) • 7) Hygromycin (Clontech #8057-1) • 8) Doxycycline (Clontech #8634-1) • 9) Trypsin/EDTA (Gibco #25200-056) • 10) 100 mm cell culture plates (Falcon #3003) • 11) 96-well poly-D-lysine plates (Fisher #08-774-256) • 12) Hank's Balanced Salt Solution (HBSS) (GIBCO #14025-092) • 13) HEPES Buffer (GIBCO #15630-080) • 14) 30% BSA (Research Organics #1334A) • 15) Probenecid (Sigma P-8761) • 16) Fluo-4, AM (50 μg) (Molecular Probes F-23917) • 17) Pluronic F-127 20% (Molecular Probes P-3000). • 18) capsazepine (Sigma C-191) • 19) capsaicin (Sigma M-2028) • 20) compound plates (NUNC #442587) • 21) black pipet tips 96-well FLIPR (Robbins Scientific 1043-24-0) • 22) Additional reagents available from Fisher: methanol, DMSO, NaOH Reagent Preparation: 1) Cells: HEK293-Tet^OFF-TRPV11
(§2) • and Doxycycline 2.5 μg/mL final (from a 1000× stock in PBS) • Cells must be fed and/or split every 2-3 days (to maintain transcriptional repression with Doxycycline). • Must be split no more than 1:5 (50-75% confluency) to maintain growth and viability. • Grown on regular tissue culture plates (e.g Falcon 3003-100 mm) • Split cells via Trypsin/EDTA: incubate with trypsin at room temperature no longer than 5 minutes (HEK293 cells have a tendency to ball up if over trypsinized). • Two days prior to assay, the cells are split into 96-well plates in cell media in the absence of doxycycline at a concentration of 40,000 cells/well in a volume of 200 μL. 2) FLIPR buffer is prepared fresh:
Add 5 mL of Probenecid Solution, prepared as follows: 710 mg of probenecid (Sigma P-8761) is solubilized in 5 mL of 1N NaOH, 5 mL of above buffer is added for final volume of 10 mL. (of which 5 mL goes back into FLIPR buffer)
Combine 42 μL of dye mixture with 11 mL of FLIPR buffer/96-well plate.
Stock solution of 0.1 M capsaicin is prepared in MeOH (50 mg+1.6 mL MeOH). Store 50 μL aliquots at −80° C.
(§3) For assay: • a) Dilute stock by adding 0.8 μL into 1 mL of MeOH (final=80 uM). • b) Add 50 μL of diluted stock to 20 mL of FLIPR buffer (final=0.2 uM) • c) Agonist solution is added 150 μL/well to 96-well plate. • d) Final agonist concentration on cells will be 50 nM. […] Laser is adjusted upwards for an average signal≧10,000/well and less than 10% variability. 7) Compound addition conditions are as follows: • FLIPR setup (dual sequence parameters): • Sequence 1: • First interval 1 sec/60 counts • Second interval 6 sec/50 counts • Fluid addition=50 μL • Pipettor height 110 μL • Dispense Speed=30 μL/sec • Sequence 2: • Second interval 1 sec/60 counts • Second interval 6 sec/40 counts • Fluid addition=50 μL • Pipettor height=140 μL • Dispense Speed=50 μL/sec Data Analysis: • 1) Data from both additions is reported as Max-Min for each well

Test [2] has as its target T1, TRPV1 (VR1). The test can be described thus: TRPV1 screening assay (FLIPR, Fluo-4 calcium), PMA stimulation. The note with it: HEK293-TetOFF-TRPV1, PMA. It is filed as cell-based. On the procedure:
2) FLIPR buffer is prepared fresh:
as §3

A further test deals with NPC1L1 (Rattus norvegicus, UniProt Q6T3U3). The test is described as follows: NPC1L1 binding assay (BODIPY-labeled glucuronidated ezetimibe competition), rat.
Another test addresses T2, human NPC1L1 (Homo sapiens, UniProt Q9UHC9).
T2 construct: expressed in transfected cells; host or cells: HEK-293 (geneticin selection)
T2 sequence (Q9UHC9 22-1359): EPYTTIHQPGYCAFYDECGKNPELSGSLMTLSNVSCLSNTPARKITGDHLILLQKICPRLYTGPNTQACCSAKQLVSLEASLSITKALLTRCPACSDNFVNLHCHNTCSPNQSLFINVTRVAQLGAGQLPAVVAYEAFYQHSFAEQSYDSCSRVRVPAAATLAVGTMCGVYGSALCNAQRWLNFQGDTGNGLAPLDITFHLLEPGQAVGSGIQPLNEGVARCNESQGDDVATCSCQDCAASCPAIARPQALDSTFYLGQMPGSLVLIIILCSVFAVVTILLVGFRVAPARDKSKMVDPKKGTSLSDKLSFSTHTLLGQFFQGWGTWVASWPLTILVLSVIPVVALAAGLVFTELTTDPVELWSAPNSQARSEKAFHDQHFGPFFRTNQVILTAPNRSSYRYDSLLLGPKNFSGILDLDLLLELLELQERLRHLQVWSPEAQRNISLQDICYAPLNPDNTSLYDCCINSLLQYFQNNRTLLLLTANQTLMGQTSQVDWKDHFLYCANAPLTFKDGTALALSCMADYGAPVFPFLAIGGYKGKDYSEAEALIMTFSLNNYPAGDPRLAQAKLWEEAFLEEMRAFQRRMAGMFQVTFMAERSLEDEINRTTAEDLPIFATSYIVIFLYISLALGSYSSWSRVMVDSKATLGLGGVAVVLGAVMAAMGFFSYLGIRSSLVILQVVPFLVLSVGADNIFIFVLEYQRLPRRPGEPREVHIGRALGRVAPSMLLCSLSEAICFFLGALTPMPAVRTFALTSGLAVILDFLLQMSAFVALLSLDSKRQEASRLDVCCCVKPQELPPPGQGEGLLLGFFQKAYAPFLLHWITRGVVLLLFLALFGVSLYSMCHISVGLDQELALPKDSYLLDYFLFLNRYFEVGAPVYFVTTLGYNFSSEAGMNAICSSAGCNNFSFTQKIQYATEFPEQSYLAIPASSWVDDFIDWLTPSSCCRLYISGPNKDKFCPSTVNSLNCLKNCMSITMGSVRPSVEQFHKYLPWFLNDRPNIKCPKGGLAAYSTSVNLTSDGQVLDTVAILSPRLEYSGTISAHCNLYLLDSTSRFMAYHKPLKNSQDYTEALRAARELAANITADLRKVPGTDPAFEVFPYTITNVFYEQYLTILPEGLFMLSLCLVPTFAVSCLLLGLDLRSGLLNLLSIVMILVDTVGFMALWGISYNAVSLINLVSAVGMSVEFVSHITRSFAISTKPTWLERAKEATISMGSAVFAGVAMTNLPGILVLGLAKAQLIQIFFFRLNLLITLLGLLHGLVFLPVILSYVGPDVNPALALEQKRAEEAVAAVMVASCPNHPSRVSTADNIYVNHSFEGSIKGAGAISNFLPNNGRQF
The test can be described thus: NPC1L1 binding assay (BODIPY-labeled glucuronidated ezetimibe competition), human. Conditions: HEK-293 cells expressing human NPC1L1, 4 hours at 37° C. On the procedure:
HEK-293 cells expressing human NPC1L1 were plated into 384-well black/clear plates (BD Biosciences, Bedford Mass.) for binding experiments the following day. Cell growth media (DMEM, 10% fetal calf serum, 1 mg/mL geneticin, 100 Units/mL penicillin) was aspirated. Cell growth media ([…]) containing 250 nM BODIPY-labeled glucuronidated ezetimibe was added to each well. Cell growth media ([…]) containing the indicated concentration of compound was then added to the wells. Unlabeled glucuronidated ezetimibe ([…]) was used to determine nonspecific binding. The binding reaction was allowed to proceed for 4 hours at 37° C. Subsequently the cell growth media was aspirated and the cells washed once with PBS. The remaining fluorescent labeled glucuronidated ezetimibe bound to the cells was quantified using a FlexStation plate reader (Molecular Devices, Sunnyvale Calif.) to measure fluorescence intensity. Ki values were determined from competition binding curves (n=4 for each point) using Prism and Activity Base software.

A further test has as its target T3, rat VR1 (Rattus norvegicus, UniProt O35433).
T3 construct: expressed in transfected cells; host or cells: HEK293-TetOFF
The test is described as follows: TRPV1 screening assay (FLIPR), rat VR1 % activation at single concentration. It is filed as cell-based.
Source text: as §1, §2
For assay: • a) Dilute stock by adding 0.8 μL into 1 mL of MeOH (final=80 uM). • b) Add 50 μL of diluted stock to 20 mL of FLIPR buffer (final=0.2 uM) • c) Agonist solution is added 150 μL/well to 96-well plate. • d) Final agonist concentration on cells will be 50 nM. (˜EC80) 6) Compound Plate preparation: • a) Compound plate is filled with 150 μL/well of FLIPR buffer • b) 3 μL of compound mixtures (1 mg/mL) is added to each well (represents a 3× solution and final DMSO=0.67%) Assay Procedure: • 1) Media is removed from cells grown in 96-well dishes. • 2) 100 μL of Fluo-4 containing FLIPR buffer in pipetted into each well. • 3) Plates are incubated for 30-60 minutes at 37° C. in 5% CO2 incubator. • 4) Plates are then washed three times with 100 μL of FLIPR buffer. • 5) 100 μL of FLIPR buffer is left in each well and plate is incubated at 37° C. for at least 20 minutes. • 6) Signal of dye-labeled plate is initially determined using laser at 0.300 W with an exposure time of 0.4 seconds. Laser is adjusted upwards for an average signal≧10,000/well and less than 10% variability. 7) Compound addition conditions are as follows: • FLIPR setup (dual sequence parameters): • Sequence 1: • First interval 1 sec/60 counts • Second interval 6 sec/50 counts • Fluid addition=50 μL • Pipettor height 110 μL • Dispense Speed=30 μL/sec • Sequence 2: • Second interval 1 sec/60 counts • Second interval 6 sec/40 counts • Fluid addition=50 μL • Pipettor height=140 μL • Dispense Speed=50 μL/sec Data Analysis: • 1) Data from both additions is reported as Max-Min for each well

We go through 17 molecules from patent publication US20080076751A1, “Azetidinone Derivatives and Methods of Use Thereof” (priority 2006, published 2008).

T3 sequence (O35433 whole entry): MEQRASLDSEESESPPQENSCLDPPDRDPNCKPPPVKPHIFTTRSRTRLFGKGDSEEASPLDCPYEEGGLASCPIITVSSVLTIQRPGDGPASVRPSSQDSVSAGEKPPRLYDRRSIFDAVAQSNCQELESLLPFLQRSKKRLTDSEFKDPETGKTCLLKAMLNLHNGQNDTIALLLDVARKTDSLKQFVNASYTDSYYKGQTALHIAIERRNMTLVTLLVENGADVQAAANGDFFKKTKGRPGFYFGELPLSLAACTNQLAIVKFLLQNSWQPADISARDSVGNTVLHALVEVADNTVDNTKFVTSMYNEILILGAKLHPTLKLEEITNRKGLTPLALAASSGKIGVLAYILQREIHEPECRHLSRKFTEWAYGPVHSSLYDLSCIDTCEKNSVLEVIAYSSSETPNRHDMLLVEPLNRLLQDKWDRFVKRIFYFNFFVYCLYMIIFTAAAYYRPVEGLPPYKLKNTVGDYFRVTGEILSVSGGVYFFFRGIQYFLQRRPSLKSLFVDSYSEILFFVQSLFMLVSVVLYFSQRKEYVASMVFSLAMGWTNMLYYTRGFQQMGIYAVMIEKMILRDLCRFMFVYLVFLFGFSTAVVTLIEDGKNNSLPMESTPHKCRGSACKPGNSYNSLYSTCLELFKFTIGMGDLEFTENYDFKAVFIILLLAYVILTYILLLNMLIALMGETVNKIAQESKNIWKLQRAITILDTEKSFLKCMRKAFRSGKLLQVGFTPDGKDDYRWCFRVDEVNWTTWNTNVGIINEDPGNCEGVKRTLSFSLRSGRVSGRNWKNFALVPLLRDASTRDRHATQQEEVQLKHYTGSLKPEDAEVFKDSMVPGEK
T1 sequence (O35433 whole entry): as above

Turning to `O=C(Nc1ccc(C(F)(F)F)cc1)N1CCC2(CC1)C(=O)N(c1ccccn1)C2c1ccccc1` (centres unmarked), the IC50 is 20 nM on TRPV1 (VR1) [1] and 16 nM at TRPV1 (VR1) [2].
Turning to `CC(C)(C)c1ccc(NC(=O)N2CCC3(CC2)CN(c2ccccc2)C3=O)cc1`, the results for the half-maximal inhibitory concentration (IC50) at TRPV1 (VR1) [1] and on TRPV1 (VR1) [2] were 80 nM and 59 nM, respectively.
Regarding `CCC(C)c1ccc(NC(=O)N2CCC3(CC2)C(=O)N(c2ccccc2)C3c2ccccc2)cc1` (centres unmarked), the IC50 is 98 nM on TRPV1 (VR1) [1] and 81 nM at TRPV1 (VR1) [2].
Regarding `O=C(Nc1ccc(C(F)(F)F)cn1)N1CCC2(CC1)C(=O)N(c1ccccc1)C2c1ccccc1` (centres unmarked), the IC50 on TRPV1 (VR1) [1] turned out to be 315 nM; at TRPV1 (VR1) [2], 205 nM.
Take `CC(C)c1ccc(NC(=O)N2CCC3(CC2)CN(c2ccccc2)C3=O)cc1`: the IC50 at TRPV1 (VR1) [1] came to 504 nM; on TRPV1 (VR1) [2], 5 nM.
On to `O=C(Nc1c(Cl)cccc1Cl)N1CCC2(CC1)C(=O)N(c1ccccc1)C2c1ccccc1` (centres unmarked), for which the results for the Ki at NPC1L1 and on human NPC1L1 were 1520 nM and 2120 nM, respectively.
Regarding `Cc1cccc(Cl)c1NC(=O)N1CCC2(CC1)C(=O)N(c1ccc(F)cc1)C2c1ccc(Cl)cc1` (centres unmarked), the Ki on NPC1L1 was determined as 5950 nM; on human NPC1L1, 10100 nM.
Consider `O=C(Nc1c(Cl)cccc1Cl)N1CCC2(CC1)C(=O)N(c1ccc(F)cc1)C2c1ccc(Cl)cc1` (centres unmarked), for which the Ki was determined as 4840 nM on NPC1L1 and 6410 nM on human NPC1L1.
As for `O=C(Nc1ccc(C(F)(F)F)cc1)N1CCC2(CC1)C(=O)N(c1ccccn1)C2c1ccccc1` (single isomer, unassigned), the IC50 on TRPV1 (VR1) [1] and on TRPV1 (VR1) [2] was 7 nM each time.
For `CC(C)(C)c1ccc(NC(=O)N2CCC3(CC2)C(=O)N(c2ccccc2)C3c2ccccc2)cc1` (single isomer, unassigned), the IC50 at TRPV1 (VR1) [1] was found to be 9 nM; on TRPV1 (VR1) [2], 12 nM.
Consider `CC(C)(C)C1CCC(NC(=O)N2CCC3(CC2)C(=O)N(c2ccccc2)C3c2ccccc2)CC1` (single isomer, unassigned), for which the IC50 at TRPV1 (VR1) [1] amounted to 48 nM; on TRPV1 (VR1) [2], 31 nM.
In the same order, the values of `CC(C)(C)C1CCC(NC(=O)N2CCC3(CC2)CN(c2ccccc2)C3=O)CC1` (single isomer, unassigned) are 84 nM and 123 nM.
`O=C(Nc1cccc(C(F)(F)F)c1)N1CCC2(CC1)C(=O)N(c1ccc(F)c(Cl)c1)C2c1ccccn1` (centres unmarked) [drawing 660]: the “rat VR1 % activation @ 3.3 ug/ml compound” value at rat VR1 is given as 98%.
Consider `O=C(Nc1cccc(C(F)(F)F)c1)N1CCC2(CC1)C(=O)N(c1cncc(Cl)c1)C2c1ccccn1` (centres unmarked) [drawing 661], for which the “rat VR1 % activation @ 3.3 ug/ml compound” value on rat VR1 is recorded as 61%.
In the case of `N#Cc1cc(F)cc(NC(=O)N2CCC3(CC2)C(=O)N(c2ccc(F)c(Cl)c2)C3c2ccccn2)c1` (centres unmarked) [drawing 662], at rat VR1, the “rat VR1 % activation @ 3.3 ug/ml compound” value was 67%.
As for `N#Cc1cccc(N2C(=O)C3(CCN(C(=O)Nc4cccc(C(F)(F)F)c4)CC3)C2c2ccccn2)c1` (centres unmarked) [drawing 663], the “rat VR1 % activation @ 3.3 ug/ml compound” value at rat VR1 is 61%.
Regarding `O=C(Nc1cc(F)cc(F)c1)N1CCC2(CC1)C(=O)N(c1cccc(Cl)c1)C2c1cccnc1` (centres unmarked) [drawing 664], the “rat VR1 % activation @ 3.3 ug/ml compound” value at rat VR1 is on record as 75%.
